Measured values from PubChem BioAssay AID1918937 (Molecular Pharmacology Branch, DTP, NCI, 2023).
Values joined by “and” are separate entries in the source; they are usually repeats but may differ in a detail not shown here. Equal values may be shown once.

Test system: 521955-158-R2-J5-PDC complex spheroid viability
Assay: Anticancer human tumor 521955-158-R2-J5-PDC patient-derived pancreatic carcinoma cell line growth inhibition
Settings: for viability, T/C: stronger effect = lower value
How it was run: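 Drug combinations with the LSD1 inhibitor iadademstat tested on tumor cells co-cultured as spheroids with endothelial cells and mesenchymal stem cells. Concentrations descended in half-log increments from clinical Cmax or 10 microM.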
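Also: spheroids exposed to agents for seven days.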
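For viability, T/C in this document: percent of DMSO vehicle control luminescence viability.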

O=C(C=Cn1cnc(-c2cc(C(F)(F)F)cc(C(F)(F)F)c2)n1)NNc1cnccn1 + NC1CCC(NC2CC2c2ccccc2)CC1 showed an IC50 (curve of first compound, second compound 0.1 µM) of under 3.16 nM, an IC50 (curve of first compound, second compound 0.316 µM) of under 3.16 nM and an IC50 (curve of first compound, second compound 1 µM) of under 3.16 nM. It also gave an IC50 (curve of first compound, second compound 3.16 µM) of under 3.16 nM, an IC50 (curve of first compound, second compound 10 µM) of under 3.16 nM and a viability, T/C (second compound 0.1 µM, first compound 0.00316 µM) of 40.4%. The viability, T/C (second compound 0.1 µM, first compound 0.01 µM) was 42%, the viability, T/C (second compound 0.1 µM, first compound 0.0316 µM) was 45.4% and the viability, T/C (second compound 0.1 µM, first compound 0.1 µM) was 35.8%. It also gave a viability, T/C (second compound 0.1 µM, first compound 0.316 µM) of 19%, a viability, T/C (second compound 0.1 µM, first compound 1 µM) of 14.7% and a viability, T/C (second compound 0.316 µM, first compound 0.00316 µM) of 40.8%. The viability, T/C (second compound 0.316 µM, first compound 0.01 µM) was 33.4%, the viability, T/C (second compound 0.316 µM, first compound 0.0316 µM) was 52.3% and the viability, T/C (second compound 0.316 µM, first compound 0.1 µM) was 40.6%. The viability, T/C (second compound 0.316 µM, first compound 0.316 µM) was 21.5%, the viability, T/C (second compound 0.316 µM, first compound 1 µM) was 16.1% and the viability, T/C (second compound 1 µM, first compound 0.00316 µM) was 37.7%. It also gave a viability, T/C (second compound 1 µM, first compound 0.01 µM) of 31.5%, a viability, T/C (second compound 1 µM, first compound 0.0316 µM) of 52.4% and a viability, T/C (second compound 1 µM, first compound 0.1 µM) of 38.4%. It also gave a viability, T/C (second compound 1 µM, first compound 0.316 µM) of 26.8%, a viability, T/C (second compound 1 µM, first compound 1 µM) of 17.2% and a viability, T/C (second compound 3.16 µM, first compound 0.00316 µM) of 40.2%. For the same compound, the viability, T/C (second compound 3.16 µM, first compound 0.01 µM) was 41.1%, the viability, T/C (second compound 3.16 µM, first compound 0.0316 µM) was 36.1% and the viability, T/C (second compound 3.16 µM, first compound 0.1 µM) was 41.5%. The viability, T/C (second compound 3.16 µM, first compound 0.316 µM) was 21.6%, the viability, T/C (second compound 3.16 µM, first compound 1 µM) was 17.1% and the viability, T/C (second compound 10 µM, first compound 0.00316 µM) was 32.2%. It also gave a viability, T/C (second compound 10 µM, first compound 0.01 µM) of 29.3%, a viability, T/C (second compound 10 µM, first compound 0.0316 µM) of 35.3% and a viability, T/C (second compound 10 µM, first compound 0.1 µM) of 29%. The viability, T/C (second compound 10 µM, first compound 0.316 µM) was 24.1% and the viability, T/C (second compound 10 µM, first compound 1 µM) was 13.3%.

In the case of CC1(C)CCC(CN2CCN(c3ccc(C(=O)NS(=O)(=O)c4ccc(NCC5CCOCC5)c([N+](=O)[O-])c4)c(Oc4cnc5[nH]ccc5c4)c3)CC2)=C(c2ccc(Cl)cc2)C1, the viability, T/C (compound 0.0316 µM) is reported as 103% and 110%, the viability, T/C (compound 0.1 µM) is reported as 112% and 110% and the viability, T/C (compound 0.316 µM) is reported as 107% and 115%. For the same compound, the viability, T/C (compound 1 µM) was 103% and 111%, the viability, T/C (compound 3.16 µM) was 62% and 73.6% and the viability, T/C (compound 10 µM) was 0.69% and 0.97%. For the same compound, the IC50 (curve of compound) was 3960 nM and 4600 nM.
